How the values were obtained:
[1] = test system: CD28 expression in anti-CD3/PMA-activated human T-cells; assay: Activation-induced CD28 surface expression, immunofluorescence analysis; assay type: cell-based; conditions: for Relative inhibition of expression, CD28: anti-CD3/PMA-activated peripheral human T cells, relative to the activity of 5 μM RT03S (100%); for loss of inhibitory activity relative to RT03S: G to C substitutions within both four G regions
Description: (§1) Prior to the addition of human peripheral T-cells or T-cell lymphoma cell lines (0.2-0.3×10^6), duplicate 96-well microtitre plates were pre-coated with purified anti-CD3 monoclonal antibody (mAb) (6.25-200 ng/well) (clone HIT 3a, Pharmingen, San Diego, Calif.) and washed twice with cold phosphate-buffered saline, pH 7.4 (PBS). Anti-CD3 mAb-treated T-cells were further activated by the addition of 2 ng phorbol 12-myristate 13-acetate (PMA) (Calbiochem, La Jolla, Calif.) and incubated for 48 h at 37° C. Anti-CD3/PMA-activated T-cells were treated with 1-20 μM CD28-specific and control oligonucleotides immediately following activation and re-treated 24 h later. T-cells from one duplicate plate was used for immunofluorescence analysis and the supernatants used for cytokine studies and the second plate was used for T-cell proliferation analysis.
Following activation, […] cell supernatant from the first duplicate microplate was transferred to another microplate for analysis of cell-derived cytokine production. The remaining cells were washed twice with isotonic saline solution, pH 7.4 (Becton Dickinson, Mansfield, Mass.) and resuspended in […] isotonic saline solution and split into two samples. One sample aliquot was co-stained with either PE-CD28/FITC-CD4 or PE-CD54/FITC-CD25 mAb and non-specific fluorescence was assessed by staining the second aliquot with PE/FITC-labeled isotype-matched control monoclonal antibody. All fluorescence-labeled monoclonal antibodies were obtained from Becton Dickinson (San Jose, Calif.). Incubations were performed in the dark at 4° C. for 45 min using saturating mAb concentrations. Unincorporated label was removed by washing in PBS prior to the analysis with a FACScan flow cytometer (Becton Dickinson). Antigen density was indirectly determined in gated live cells and expressed as the mean channel of fluorescence (MCF). Surface expression of specific antigens (CD54, CD25) was represented as the mean channel shift (MCS) obtained by subtracting the MCF of FITC- or PE-labeled isotype-matched (IgG1) control mAb-stained cells from the MCF of FITC- or PE-labeled antigen-specific mAb stained cells. Alternatively, surface expression of the CD4^+ -subset of cells stained with CD28 mAb was determined by subtracting the MCF of […]. The viability of control untreated and oligonucleotide-treated cells were determined in each batch of all oligonucleotides in multiple donors by staining with the vital dye, propidium iodide (5 μg/ml final concentration). The percentage of live cells which excluded propidium iodide was determined by flow cytometry and was >90% (range 90-99%) following treatment with all batches of all oligonucleotides at a dose range of 1-20 μM (FIG. 2).
(§2) Peripheral blood mononuclear cells (PBMCs) were isolated from healthy donors by density gradient centrifugation followed by T cell enrichment using Lymphokwik (One Lambda). Contaminating monocytes were removed by adherence to plastic. Purified T cells were >99% CD2^+, <1% HLA-DR^+ and <5% CD25^+. Jurkat E6-1 (CD28^+ /CD4^+) T cells and HUT 78 (CD28^- /CD4^+) T cells and the monocytic cell line, THP were obtained from ATCC. Cells were cultured at a concentration of 0.2-0.3×10^6 /well and activated with plate-immobilized anti-CD3 monoclonal antibody (mAb) (HIT3A 0.25 μg/ml) (Pharmingen) and 2 ng phorbol 12-myristate 13-acetate (PMA) (Calbiochem).
Cells were co-stained with either PE-CD28/FITC-CD4 or PE-CD54/FITC-CD25 mAb or with PE/FITC-labeled isotype-matched controls (Becton Dickinson). Cell surface antigen density (CD28, CD54, CD25) was confirmed by flow cytometry (FACScan, Becton Dickinson). Viability was assessed by propidium iodide (5 μg/ml) exclusion in control untreated and oligo-treated CD4^+ cells from multiple donors and was typically >90% (range 90-99%) following 48 h incubation with 1-10 μM of each batch of all oligonucleotides.

[2] = test system: IL-2 production in Jurkat E6-1 cells; assay: IL-2 production in activated Jurkat cells; assay type: cell-based, human; conditions: activated IL-2 production in Jurkat T cells; relative to the activity of 5 μM RT03S (100%)
Description: The T-cell lymphoma cell lines, Jurkat E6-1 (CD28+/CD4+) cells (152-TIB) and HUT 78 (CD28-/CD4+) cells (TIB-161) (ATCC, Rockville, Md.) were maintained in RPMI-10 (RPMI-1640 medium containing […] HEPES buffer, pH 7.4, 10% fetal calf serum (FCS) (Hyclone, Logan, Utah), 1% L-glutamine and 1% penicillin/streptomycin).
as §1
Cell-derived human cytokine concentrations were determined in cell supernatants from the first duplicate microplate. Mitogen-induced changes in interleukin-2 (IL-2) levels were determined using a commercially available ELISA kit (R & D systems Quantikine kit, Minneapolis, Minn.) or by bioassay using the IL-2-dependent cell line, CTLL-2 (ATCC, Rockville, Md.). Mitogen-induced changes in interferon-gamma and interleukin-8 (IL-8) levels were determined by ELISA using kits from Endogen (Cambridge, Mass.) and R & D systems (Quantikine kit, Minneapolis, Minn.) respectively. All ELISA results were expressed as pg/ml and the CTLL-2 bioassay as counts per minute representing the IL-2 -dependent cellular incorporation of ^3 H-thymidine (ICN, Costa Mesa, Calif.) by CTLL-2 cells.
as §2
Proliferative responses were assessed by measuring ^3 H-thymidine (1 μCi, ICN) incorporation for the last 16 h of each assay. Cells were harvested onto filters and DNA synthesis was measured following scintillation counting on a Wallac Betaplate counter. Cytokine concentrations in culture supernatants were assayed using ELISA kits for IL-2, IL-8 (R & D Systems) and IFN-γ (Endogen) or by bioassay using the IL-2 -dependent cell line, CTLL-2 (ATCC).

[3] = biological target: CD3 (T-cell receptor/CD3 complex) on human T cells (human)
[4] = biological target: CD3 (T-cell receptor/CD3 complex) on human T cells (human); remark: listed apart in the source

“RT05S: TTG GAG GGG GAG GAG GGG, SEQ ID NO: 51 (DNA TTGGAGGGGGAGGAGGGG; chemistry not given here)” was tested, and the “Relative inhibition of expression, CD28” value [1] was 136% and the “Relative inhibition of expression, IL-2” value [2] was 100%.
For “RT06S: TTC CAG CCC CTC CTC CCC, SEQ ID NO: 64 (DNA TTCCAGCCCCTCCTCCCC; chemistry not given here)”, the “Relative inhibition of expression, CD28” value [1] was 29% and the “Relative inhibition of expression, IL-2” value [2] was 22%.
In the case of “RT09S: TTG GAG GGG GAG GTG GGG, SEQ ID NO: 52 (DNA TTGGAGGGGGAGGTGGGG; chemistry not given here)”, the “Relative inhibition of expression, CD28” value [1] was 126% and the “Relative inhibition of expression, IL-2” value [2] was 100%.
“RT10S: TTG GAG GCG GTG GTG GCG, SEQ ID NO: 53 (DNA TTGGAGGCGGTGGTGGCG; chemistry not given here)” was tested, and the “loss of inhibitory activity relative to RT03S” value ([1]; range over the named group) was 56-69%, the “Relative inhibition of expression, CD28” value [1] was 31% and the “Relative inhibition of expression, IL-2” value [2] was 38%.
In the case of “RT11S: GGG GAG GAG GGG CTG GAA, SEQ ID NO: 50, sense sequence, upstream region of the CD28 gene (sense GGGGAGGAGGGGCTGGAA; chemistry not given here)”, the “Relative inhibition of expression, CD28” value [1] was 100% and the “Relative inhibition of expression, IL-2” value [2] was 100%.
“RT18S: GGG GTG GTG GGG, SEQ ID NO: 57, core 12 mer sequence (DNA GGGGTGGTGGGG; chemistry not given here)” was tested, and the “Relative inhibition of expression, CD28” value [1] was 103% and the “Relative inhibition of expression, IL-2” value [2] was 120%.
“RT19S: G GGG TTG GGG, SEQ ID NO: 58 (DNA GGGGTTGGGG; chemistry not given here)” was tested, and the “Relative inhibition of expression, CD28” value [1] was 30%, the “reduction of relative bioactivity” value ([1]; insertion or deletion of bases separating the sets of G's, range over the named group) was 52-70% and the “Relative inhibition of expression, IL-2” value [2] was 89%.
In the case of “RT23S: TTG GAGCCG GTG GTG G, SEQ ID NO: 56 (DNA TTGGAGCCGGTGGTGG; chemistry not given here)”, the “loss of inhibitory activity relative to RT03S” value ([1]; range over the named group) was 56-69%, the “Relative inhibition of expression, CD28” value [1] was 38% and the “Relative inhibition of expression, IL-2” value [2] was 57%.
With “RT24S: TTG GAG CCG GTG GTG GCC, SEQ ID NO: 54 (DNA TTGGAGCCGGTGGTGGCC; chemistry not given here)” the “loss of inhibitory activity relative to RT03S” value ([1]; range over the named group) was 56-69%, the “Relative inhibition of expression, CD28” value [1] was 40% and the “Relative inhibition of expression, IL-2” value [2] was 57%.
In the case of “RT25S: TTG GAG GGG CTC CTC GGG, SEQ ID NO: 55 (DNA TTGGAGGGGCTCCTCGGG; chemistry not given here)”, the “loss of inhibitory activity relative to RT03S” value ([1]; range over the named group) was 56-69%, the “Relative inhibition of expression, CD28” value [1] was 44% and the “Relative inhibition of expression, IL-2” value [2] was 25%.
Work on “anti-CD3 monoclonal antibody (clone HIT 3a, Pharmingen)” yielded a surface expression of CD28 (immunofluorescence, MCS) [3] of 150 MCS and an incorporation of 3H-thymidine (T-cell proliferation) (counts per minute) [4] of 302000.
